From US20190328825A1, “METHODS FOR TREATING AUTISM SPECTRUM DISORDER AND ASSOCIATED SYMPTOMS” (Arizona Board of Regents on behalf of Arizona State …, priority 2015, published 2019)

Assays:
children with ASD [1] = experiment: Toleration of study medications / adverse effects
Source text: The participants were given oral vancomycin (a non-absorbable broad spectrum antibiotic that stays in the GI tract) for 2 weeks to reduce levels of pathogenic bacteria, and then 1 day of low-volume colonoscopy prep MoviPrep® (a drink that flushes the bowels, to remove most remaining gut bacteria and vancomycin) to clear the residual vancomycin and feces. The vancomycin was intended to kill off harmful bacteria, the fasting was intended to remove any remaining bacteria and to minimize other luminal fecal material, and the colon cleanse helped remove the vancomycin and cleanse the lower GI Tract.
The rectal dose was administered under the direct supervision of the study physician, and the first oral dose was similarly administered in the presence of the physician. Participants were randomly assigned to either the oral or rectal route of administration. If one administration route was not tolerated, or if the family preferred the other route, then participants had the option of trying the other route. For the participants with initial oral dose, a lower oral maintenance dose (2.5×10^9 CFU) was followed for 8 weeks right after the major oral initial dose. Whereas, the major rectal initial dose was followed by waiting period of 1 week followed by a lower oral maintenance dose (2.5×10^9 CFU) for 7 weeks. The maintenance SHGM dose were self-administered orally every day up to week 10. After treatment was stopped, participants were monitored for another 8 weeks.
Prilosec (omeprazole) was administered daily to reduce stomach acid and thereby increase viability of the MTT, starting on the 12th day of oral vancomycin treatment and continuing until the end of the maintenance dose.

children with ASD [2] = experiment: Complete Blood Count / blood chemistry panel; type: in vivo, human
Source text: The following minor changes were observed. There was a 5% decrease in potassium (p=0.01) from beginning to end of treatment, but all levels remain in the normal range. After the vancomycin (2nd week of study), there was a 8% increase in platelets (p=0.03). Four subjects had elevated levels at start, and only 2 had elevated levels after vancomycin. There was a 26% drop in blood urea nitrogen (BUN) (p=0.002), but all stayed in normal range. There was a 6% increase in albumin to globulin (A/G) ratio (p=0.03), with 1 slightly elevated. There was a 17% increase in aspartate amino transferase (AST) (p=0.01), but all remained in normal range. There was a 24% increase in alanine amino transferase (ALT) (p=0.003), where 1 remained elevated and 2 became slightly elevated. […] Slight changes (1-2%) in red blood cell indices (Mean corpuscular volume (MCV), Mean corpuscular hemoglobin (MCH), Mean corpuscular hemoglobin concentration (MCHC), and Red cell distribution width (RDW)) were observed.

[3] = human, in vivo, 40 mg/kg per day

Compound | toleration of study medication (children with ASD [1]; in vivo) | platelets, BUN, A/G, AST, ALT (children with ASD [2]; 3rd and 4th tests) | increase in alanine amino transferase (ALT) (children with ASD [2]; after the vancomycin) | increase in albumin to globulin (A/G) ratio (children with ASD [2]; after the vancomycin) | increase in platelets (children with ASD [2]; after the vancomycin (2nd week of study)) | increase in aspartate amino transferase (AST) (children with ASD [2]; after the vancomycin, all remained in normal range) | drop in blood urea nitrogen (BUN) (children with ASD [2]; after the vancomycin, all stayed in normal range) | duration of behavioral reaction in most cases (children with ASD [1]; [3]) | onset of behavioral reaction after start of vancomycin (children with ASD [1]; [3]) | severity of behavioral symptoms (children with ASD [1]; hyperactivity, tantrumming/aggression) | duration of behavioral symptoms in 1 participant (children with ASD [1]; longest case) | children developing rash (children with ASD [1]; oral vancomycin with natural orange flavor, 18 children) | adverse effects overall (children with ASD [1]; primarily mild to moderate hyperactivity and tantrums/aggression) | cases of increased hyperactivity (children with ASD [1]; temporary, start of vancomycin) | cases of increased tantrums/aggression (children with ASD [1]; temporary, start of vancomycin)
COc1ccc2[nH]c([S+]([O-])Cc3ncc(C)c(OC)c3C)nc2c1 (stereo not drawn) [Prilosec, omeprazole] | generally well-tolerated | – | – | – | – | – | – | – | – | – | – | – | – | – | –
CN[C@H](CC(C)C)C(=O)N[C@H]1C(=O)N[C@@H](CC(N)=O)C(=O)N[C@H]2C(=O)N[C@H]3C(=O)N[C@H](C(=O)N[C@H](C(=O)O)c4cc(O)cc(O)c4-c4cc3ccc4O)[C@H](O)c3ccc(c(Cl)c3)Oc3cc2cc(c3O[C@@H]2O[C@H](CO)[C@@H](O)[C@H](O)[C@H]2O[C@H]2C[C@](C)(N)[C@H](O)[C@H](C)O2)Oc2ccc(cc2Cl)[C@H]1O [vancomycin] | – | returned to similar to baseline | 24% | 6% | 8% | 17% | 26% | 1 to 3 days | 1 to 4 days | mild to moderate | 3 weeks | One and one | only temporary adverse effects | 7 | 5
